Where two headings read alike, the source gives them in different places.
Legend:
Format in all cases: biochemical
[1] = biological target: T1, human recombinant FAAH (Homo sapiens, UniProt O00519); assay: FAAH inhibition enzymatic assay, fluorescent substrate Arachidonoyl-AMC, 30 minute incubation; details: T = 30 min (30 minute incubation); geometric mean of 2-4 determinations unless otherwise indicated
T1 construct: purchased Cayman 10010183
T1 sequence (O00519 1-579): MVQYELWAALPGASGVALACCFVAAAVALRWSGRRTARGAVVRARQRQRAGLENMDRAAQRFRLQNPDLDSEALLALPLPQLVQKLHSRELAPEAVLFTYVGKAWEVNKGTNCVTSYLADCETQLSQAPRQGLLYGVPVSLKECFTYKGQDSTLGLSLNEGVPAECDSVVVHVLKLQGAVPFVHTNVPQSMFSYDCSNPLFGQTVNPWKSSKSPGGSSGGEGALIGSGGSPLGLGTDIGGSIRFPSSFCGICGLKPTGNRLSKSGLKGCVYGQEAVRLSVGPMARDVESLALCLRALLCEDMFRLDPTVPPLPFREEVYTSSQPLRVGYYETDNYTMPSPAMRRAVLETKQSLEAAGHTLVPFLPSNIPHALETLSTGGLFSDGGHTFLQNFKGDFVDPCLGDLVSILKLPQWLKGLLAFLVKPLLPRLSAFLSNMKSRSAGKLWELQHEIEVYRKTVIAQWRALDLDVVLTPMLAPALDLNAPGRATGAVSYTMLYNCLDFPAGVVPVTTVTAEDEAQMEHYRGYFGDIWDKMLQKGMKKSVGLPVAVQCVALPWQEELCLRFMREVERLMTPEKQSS

[2] = biological target: T2, human recombinant Monoacylglycerol Lipase (Homo sapiens, UniProt Q99685); assay: MAGL inactivation, enzyme progress curves, kinact/KI; details: from enzyme progress curves, T = 0 min protocol; geometric mean of 2-4 determinations unless otherwise indicated
T2 sequence (Q99685 1-303): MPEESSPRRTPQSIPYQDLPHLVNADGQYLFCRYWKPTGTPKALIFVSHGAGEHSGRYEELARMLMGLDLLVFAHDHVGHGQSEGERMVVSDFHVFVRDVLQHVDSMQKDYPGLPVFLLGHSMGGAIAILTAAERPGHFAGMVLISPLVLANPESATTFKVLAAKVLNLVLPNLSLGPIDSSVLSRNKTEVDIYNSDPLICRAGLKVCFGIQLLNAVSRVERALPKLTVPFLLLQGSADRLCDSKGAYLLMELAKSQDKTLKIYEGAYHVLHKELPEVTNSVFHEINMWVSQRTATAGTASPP
Summary of the method: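 Human recombinant MAGL ([…]) with compound, 7-HCA substrate (final 5 μM) added immediately (T=0 min), in pH 7.4 HEPES buffer with 0.1% Triton X-100 and 25% glycerin. Fluorescence (Ex/Em 340/465) was read every minute over 60 min, giving progress curves at decreasing compound concentrations (final 3 μM to 0.03 nM).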

[3] = biological target: T2, human recombinant Monoacylglycerol Lipase; assay: MAGL inhibition enzymatic assay, fluorogenic substrate 7-HCA, IC50 at T=0 min or after 30 minute incubation (T=30 min); details: geometric mean of 2-4 determinations unless otherwise indicated
Experimental: An equal volume of 7-HCA in assay buffer with 10% DMSO was added either immediately (T=0 min) or after a 30 minute incubation (T=30 min) to initiate the reaction. […] After these dilutions, the final concentration of the test compound ranged from 3 μM to 0.03 nM. […] IC50 values were generated based on a four parameter fit model using ABASE software from IDBS.

[4] = T = 0 min (substrate added immediately), read-out: MAGL (T = 0 min) IC50
[5] = T = 30 min (30 minute incubation), read-out: MAGL (T = 30 min) IC50

Structure (SMILES) | IC50 [1] | MAGL kinact/KI [2] | IC50 [3, 4] | IC50 [3, 5]
O=C(O[C@H](CO)C(F)(F)F)N1CCC2(CC1)CCN(C(=O)C1CCC(F)(F)CC1)C2 [Example 127] | > 30 µM | 2067 1/s per M | 0.163 µM | 0.017 µM
O=C(O[C@@H]([C@@H](O)C(F)(F)F)C(F)(F)F)N1C[C@@H]2[C@H](C1)[C@H]2c1ccn(-c2ccc(F)cc2)n1 (racemic) [Example 36] | 13.2 µM | 3736 1/s per M | 0.132 µM | 0.012 µM
CN([C@@H]1COC2(CCN(C(=O)O[C@H](CO)C(F)(F)F)CC2)C1)S(=O)(=O)C1CC1 [Example 94, (2R)-1,1,1-Trifluoro-3-hydroxypropan-2-yl (3S)-3-[(cyclopropylsulfonyl)(methyl)amino]-1-oxa-8-azaspiro[4.5]decane-8-carboxylate] | > 30 µM | 3764 1/s per M | 0.316 µM | 0.027 µM
CC(C)c1cccc(S(=O)(=O)N2CCOC3(CCN(C(=O)O[C@H](CO)C(F)(F)F)CC3)C2)c1 [Example 66] | 7.87 µM | 430364 1/s per M | 0.003 µM | 0.0002 µM
CN(C(=O)CC1CC1)[C@H]1COC2(CCN(C(=O)O[C@H](CO)C(F)(F)F)CC2)C1 [Example 145] | > 30 µM | 1476 1/s per M | 0.198 µM | 0.019 µM
CN([C@H]1COC2(CCN(C(=O)O[C@H](CO)C(F)(F)F)CC2)C1)S(=O)(=O)c1cnn(C)c1 [Example 138] | 16.3 µM | 2154 1/s per M | 0.185 µM | 0.015 µM
CN([C@H]1COC2(CCN(C(=O)O[C@H](CO)C(F)(F)F)CC2)C1)S(=O)(=O)CC1CC1 [Example 106, (2R)-1,1,1-Trifluoro-3-hydroxypropan-2-yl (3R)-3-{[(cyclopropylmethyl)sulfonyl](methyl)amino}-1-oxa-8-azaspiro[4.5]decane-8-carboxylate] | > 30 µM | 2856 1/s per M | 0.238 µM | 0.02 µM
O=C(O[C@H](CO)C(F)(F)F)N1CCC2(CC1)C[C@H](NS(=O)(=O)c1ccccc1)CO2 [Example 8, (2R)-1,1,1-Trifluoro-3-hydroxypropan-2-yl (3S)-3-[(phenylsulfonyl)amino]-1-oxa-8-azaspiro[4.5]decane-8-carboxylate] | > 30 µM | 6754 1/s per M | 0.057 µM | 0.005 µM
N#Cc1cccc(C2COC3(CCN(C(=O)O[C@H](CO)C(F)(F)F)CC3)C2)c1 (mixture of isomers) [Example 147] | > 26.4 µM | 5973 1/s per M | 0.06 µM | 0.006 µM
Cc1ccc(S(=O)(=O)N2CCOC3(CCN(C(=O)O[C@H](CO)C(F)(F)F)CC3)C2)cc1F [Example 73] | > 30 µM | 96515 1/s per M | 0.005 µM | 0.001 µM
O=C(O[C@H](CO)C(F)(F)F)N1CCC(Oc2ncc(C(F)(F)F)cc2Cl)CC1 [Example 63] | 3.01 µM | 7347 1/s per M | 0.007 µM | 0.001 µM
CN(C1COC2(CCN(C(=O)O[C@H](CO)C(F)(F)F)CC2)C1)S(=O)(=O)c1ccc(F)cc1 (single isomer, unassigned) [Example 110] | 7.09 µM | 8796 1/s per M | 0.07 µM | 0.006 µM
O=C(O[C@H](CO)C(F)(F)F)N1CCC2(CC1)CC(c1cccc(Cl)c1)CO2 (mixture of isomers) [Example 119] | 3.57 µM | 23176 1/s per M | 0.032 µM | 0.003 µM
O=C(O[C@H](CO)C(F)(F)F)N1CCC2(CC1)CC(c1cccc(OC(F)(F)F)c1)CO2 (mixture of isomers) [Example 118] | > 24.8 µM | 172844 1/s per M | 0.002 µM | 0.0004 µM

The next lines start with the values.

IC50 [1] | MAGL kinact/KI [2] | IC50 [3, 4] | IC50 [3, 5] | Structure (SMILES)
> 30 µM | 3478 1/s per M | 0.145 µM | 0.013 µM | CC(c1ccc(F)cc1)N1CCOC2(CCN(C(=O)O[C@H](CO)C(F)(F)F)CC2)C1 (mixture of isomers) [Example 43]
4.75 µM | 3614 1/s per M | 0.174 µM | 0.02 µM | O=C(O[C@H](CO)C(F)(F)F)N1CCC2(CC1)CCN(C(=O)N1CCCC1)C2 [Example 133]
> 30 µM | 7582 1/s per M | 0.126 µM | 0.011 µM | CN([C@H]1COC2(CCN(C(=O)O[C@H](CO)C(F)(F)F)CC2)C1)S(=O)(=O)CC(F)(F)F [Example 137]
> 30 µM | 1897 1/s per M | 0.192 µM | 0.02 µM | O=C(O)C(F)(F)F.O=C(O[C@H](CO)C(F)(F)F)N1CCC2(CC1)CC(c1ccc(F)cn1)CO2 (mixture of isomers) [Example 97, (2R)-1,1,1-Trifluoro-3-hydroxypropan-2-yl 3-(5-fluoropyridin-2-yl)-1-oxa-8-azaspiro[4.5]decane-8-carboxylate, trifluoroacetate salt]
> 30 µM | 16883 1/s per M | 0.107 µM | 0.011 µM | CN(C(=O)c1ccccc1)C1COC2(CCN(C(=O)O[C@H](CO)C(F)(F)F)CC2)C1 (single isomer, unassigned) [Example 99]
9.76 µM | 59993 1/s per M | 0.022 µM | 0.002 µM | O=C(O[C@H](CO)C(F)(F)F)N1CCC2(CC1)CCN(S(=O)(=O)c1ccccc1)C2 [Example 105, (2R)-1,1,1-Trifluoro-3-hydroxypropan-2-yl 2-(phenylsulfonyl)-2,8-diazaspiro[4.5]decane-8-carboxylate]
5.95 µM | 403739 1/s per M | 0.005 µM | 0.001 µM | CCc1cccc(S(=O)(=O)N2CCOC3(CCN(C(=O)O[C@H](CO)C(F)(F)F)CC3)C2)c1 [Example 77]
> 30 µM | 14232 1/s per M | 0.064 µM | 0.007 µM | CN(C1COC2(CCN(C(=O)O[C@H](CO)C(F)(F)F)CC2)C1)S(=O)(=O)C1CCCC1 (mixture of isomers) [Example 112]
> 30 µM | 34918 1/s per M | 0.021 µM | 0.002 µM | CN(C1COC2(CCN(C(=O)O[C@H](CO)C(F)(F)F)CC2)C1)S(=O)(=O)c1cccc(F)c1 (single isomer, unassigned) [Example 109]
9.52 µM | 18560 1/s per M | 0.062 µM | 0.005 µM | O=C(O[C@H](CO)C(F)(F)F)N1CCC2(CC1)CC(c1ccccc1)CO2 (single isomer, unassigned) [Example 96]
> 30 µM | 4611 1/s per M | 0.061 µM | 0.006 µM | O=C(OC(C(F)(F)F)C(F)(F)CO)N1CCC2(CC1)CN(S(=O)(=O)c1ccc(F)cc1)CCO2 (single isomer, unassigned; ent-1) [Example 20, 1,1,1,3,3-Pentafluoro-4-hydroxybutan-2-yl 4-[(4-fluorophenyl)sulfonyl]-1-oxa-4,9-diazaspiro[5.5]undecane-9-carboxylate, ENT-1]
1.14 µM | 6109 1/s per M | 0.056 µM | 0.008 µM | O=C(O[C@H](CO)C(F)(F)F)N1CCC(c2ccn(-c3ccc(F)cc3)n2)CC1 [Example 2, (2R)-1,1,1-Trifluoro-3-hydroxypropan-2-yl 4-[1-(4-fluorophenyl)-1H-pyrazol-3-yl]piperidine-1-carboxylate]
17.4 µM | 4241 1/s per M | 0.086 µM | 0.011 µM | O=C(O[C@H](CO)C(F)(F)F)N1CCC2(CC1)CC(N1CCc3ccccc3S1(=O)=O)CO2 (mixture of isomers) [Example 131]
